Experimental data reported in patent publication US10294202B2, “Pyrrolidinones as herbicides” (FMC Corporation, priority 2013, dated 2019).

What was measured:
oat, wild = assay: Test C pre-/postemergence herbicide test; type: in vivo, Avena fatua; conditions: Postemergence
Summary of the method: (§1)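 Herbicidal effect was judged by eye 13 to 15 days after treatment in the greenhouse, using a 0–100 scale against controls. Chemicals in a non-phytotoxic solvent with surfactant were sprayed onto planted loam/sand soil or onto plants 2 to 18 cm tall in a peat-based growing medium.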

corn [1] = assay: Test A pre-/postemergence herbicide test; type: in vivo, Zea mays; conditions: Postemergence
Summary of the method: (§2)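 Both application timings used compounds in a non-phytotoxic solvent plus surfactant. Pre-emergence: soil sprayed directly after seeding into loam/sand. Post-emergence: foliage of 2–10 cm seedlings (1–2 leaves) sprayed. Injury rated ~10 days later, 0–100.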

galium = assay: Test C pre-/postemergence herbicide test; type: in vivo, Galium aparine
Summary of the method: as §1

ryegrass, Italian = assay: Test C pre-/postemergence herbicide test; type: in vivo, Lolium multiflorum
Summary of the method: as §1

sedge, umbrella = assay: Test B flooded paddy test; type: in vivo, Cyperus difformis; conditions: 500 g ai/ha, Flood; scale of 0 to 100 where 0 is no effect and 100 is complete control
Summary of the method: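 In-water application to pots flooded 3 cm deep, plants at 2-leaf stage. Held in greenhouse 13–15 days at constant flood depth. Scored 0–100 by eye against controls.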

ragweed = assay: Test C pre-/postemergence herbicide test; type: in vivo, Ambrosia elatior
Summary of the method: as §1

barnyardgrass = assay: Test A pre-/postemergence herbicide test; type: in vivo, Echinochloa crus-galli; conditions: for Plant response rating, Barnyardgrass: 0 to 100 scale
Summary of the method: as §2

soybean = assay: Test C pre-/postemergence herbicide test; type: in vivo, Glycine max
Summary of the method: as §1

foxtail, giant = assay: Test C pre-/postemergence herbicide test; type: in vivo, Setaria faberii
Summary of the method: as §1

pigweed = assay: Test A pre-/postemergence herbicide test; type: in vivo, Amaranthus retroflexus; conditions: for Plant response rating, Pigweed: 0 to 100 scale
Summary of the method: as §2

corn [2] = assay: Test C pre-/postemergence herbicide test; type: in vivo, Zea mays
Summary of the method: as §1

[3] = Postemergence, 31 g ai/ha, scale 0 to 100 (0 no effect, 100 complete control)
[4] = Postemergence, 62 g ai/ha, scale 0 (no effect) to 100 (complete control)
[5] = Postemergence, 125 g ai/ha, scale 0 to 100 (0 no effect, 100 complete control)
[6] = Postemergence, 250 g ai/ha, scale 0 to 100 (0 no effect, 100 complete control)
[7] = Preemergence, 31 g ai/ha, scale 0 to 100, 0 is no effect and 100 is complete control
[8] = Preemergence, 62 g ai/ha, scale 0 to 100 (0 no effect, 100 complete control)
[9] = Preemergence, 125 g ai/ha, scale 0 to 100 (0 no effect, 100 complete control)
[10] = 125 g ai/ha, visual rating, 0 no effect, 100 complete control, approximately 10 days, preemergence
[11] = Postemergence, 125 g ai/ha, 0 is no effect, 100 is complete control
[12] = preemergence, 500 g ai/ha, 0 is no effect and 100 is complete control

O=C1NCC(c2cccc(OC(F)F)c2)C1C(=O)Nc1ccccc1F (stereo not drawn) [Compound 223]
Plant response rating, Oat, Wild (oat, wild; 31 g ai/ha, scale 0 to 100 (0 no effect, 100 complete control)): 0 | Plant response rating, Oat, Wild (oat, wild; 62 g ai/ha, scale 0 (no effect) to 100 (complete control)): 0 | Plant response rating, Oat, Wild (oat, wild; 125 g ai/ha, scale 0 to 100 (0 no effect, 100 complete control)): 0 | Plant response rating, Oat, Wild (oat, wild; 250 g ai/ha, scale 0 to 100 (0 no effect, 100 complete control)): 0 | Plant response rating, Corn (corn [1]; 125 g ai/ha, 0 to 100 scale, 0 is no effect, 100 is complete control): 0 | Corn plant response rating (0 to 100 scale, 0 is no effect, 100 is complete control) (corn [1]; 500 g ai/ha): 50 | Plant response rating, Galium (galium; [3]): 5 | Plant response rating, Galium (galium; [4]): 5 | Plant response rating, Galium (galium; [5]): 45 | Plant response rating, Galium (galium; [6]): 70 | Galium plant response rating (galium; [7]): 0 | Galium plant response rating (galium; [8]): 0 | Plant response rating, Galium (galium; [9]): 90 | Plant response rating (scale of 0 to 100), Galium (galium; Preemergence, 250 g ai/ha): 90 | Plant response rating, Ryegrass, Italian (ryegrass, Italian; [3]): 0 | Plant response rating, Ryegrass, Italian (ryegrass, Italian; [4]): 0 | Plant response rating, Ryegrass, Italian (ryegrass, Italian; [5]): 0 | Plant response rating, Ryegrass, Italian (ryegrass, Italian; [6]): 0 | Ryegrass, Italian plant response rating (ryegrass, Italian; [7]): 0 | Ryegrass, Italian plant response rating (ryegrass, Italian; [8]): 0 | Plant response rating, Ryegrass, Italian (ryegrass, Italian; [9]): 10 | Plant response rating (scale of 0 to 100), Ryegrass, Italian (ryegrass, Italian; Preemergence, 250 g ai/ha): 15 | Plant response rating, Sedge, Umbrella (sedge, umbrella): 0 | Plant response rating, Ragweed (ragweed; [3]): 0 | Plant response rating, Ragweed (ragweed; [4]): 0 | Plant response rating, Ragweed (ragweed; [5]): 35 | Plant response rating, Ragweed (ragweed; [6]): 35 | Ragweed plant response rating (ragweed; [7]): 0 | Ragweed plant response rating (ragweed; [8]): 0 | Plant response rating, Ragweed (ragweed; [9]): 10 | Plant response rating (scale of 0 to 100), Ragweed (ragweed; Preemergence, 250 g ai/ha): 25 | Plant response rating, Barnyardgrass (barnyardgrass; [10]): 90 | Plant response rating, Barnyardgrass (barnyardgrass; [11]): 80 | Barnyardgrass plant response rating (0 to 100 scale, 0 is no effect, 100 is complete control) (barnyardgrass; Postemergence, 500 g ai/ha): 80 | Plant response rating, Barnyardgrass (barnyardgrass; [12]): 90 | Plant response rating, Soybean (soybean; [3]): 10 | Plant response rating, Soybean (soybean; [4]): 0 | Plant response rating, Soybean (soybean; [5]): 0 | Plant response rating, Soybean (soybean; [6]): 30 | Soybean plant response rating (soybean; [7]): 0 | Soybean plant response rating (soybean; [8]): 5 | Plant response rating, Soybean (soybean; [9]): 5 | Plant response rating (scale of 0 to 100), Soybean (soybean; Preemergence, 250 g ai/ha): 15 | Plant response rating, Foxtail, Giant (foxtail, giant; [3]): 0 | Plant response rating, Foxtail, Giant (foxtail, giant; [4]): 35 | Plant response rating, Foxtail, Giant (foxtail, giant; [5]): 30 | Plant response rating, Foxtail, Giant (foxtail, giant; [6]): 35 | Foxtail, Giant plant response rating (foxtail, giant; [7]): 70 | Foxtail, Giant plant response rating (foxtail, giant; [8]): 85 | Plant response rating, Foxtail, Giant (foxtail, giant; [9]): 90 | Plant response rating (scale of 0 to 100), Foxtail, Giant (foxtail, giant; Preemergence, 250 g ai/ha): 98 | Plant response rating, Pigweed (pigweed; [10]): 20 | Plant response rating, Pigweed (pigweed; [11]): 40 | Pigweed plant response rating (0 to 100 scale, 0 is no effect, 100 is complete control) (pigweed; Postemergence, 500 g ai/ha): 60 | Plant response rating, Pigweed (pigweed; [12]): 50 | Plant response rating, Corn (corn [2]; [3]): 0 | Plant response rating, Corn (corn [2]; [4]): 0 | Plant response rating, Corn (corn [2]; [5]): 0 | Plant response rating, Corn (corn [2]; [6]): 5 | Corn plant response rating (corn [2]; [7]): 0 | Corn plant response rating (corn [2]; [8]): 0 | Plant response rating, Corn (corn [2]; [9]): 0 | Plant response rating (scale of 0 to 100), Corn (corn [2]; Preemergence, 250 g ai/ha): 45
